# Counter-ions that a name gives are not always drawn. Like-named read-outs stand apart in the source and are kept apart here.
# Experiments:
# [1] = test system: ZIKV-induced cell death in human astrocytes; assay: ATP cell viability assay for ZIKV-induced cell death, human astrocytes; format: cell-based; settings: ZIKV-infected human astrocytes
# [2] = test system: ZIKV-induced caspase 3/7 activity in SNB-19 cells; assay: Caspase 3/7 activity assay, ZIKV-infected SNB-19 cells; format: cell-based; settings: ZIKV-infected SNB-19 cells; for IC50: read-out: Caspase 3 (IC50, uM) SNB-19; for Emax: read-out: Caspase 3 (efficacy, %) SNB-19
# Description: (§1) Caspase-Glo 3/7 assay kit (catalog number G8092; Promega, Madison, Wis.) was used to detect caspase 3/7 activity. Reagents were reconstituted as described in the protocol from the manufacturer. Polystyrene plates (384-well and 1536-well; regular tissue culture treated and PDL coated) were purchased from Greiner Bio-One (Monroe, N.C.). Cells were seeded in 384- and 1536-well assay plates and cultured at 37° C. with 5% CO2 for 16 hours. ZIKV solution was added to cells, followed by incubation at 37° C. with 5% CO2 for 6 hours. Caspase-Glo 3/7 was added to each well, unless otherwise specified, and incubated at room temperature for 30 minutes. The luminescence intensity of the assay plates was measured using a ViewLux plate reader (PerkinElmer). Data were normalized by using the cell-containing wells without ZIKV as a negative control (0% induction of caspase 3/7 activity) and wells containing ZIKV infected cells that induced caspase 3/7 activity were used as a positive control (100% induction of caspase 3/7 activity). […]
# (§2) Caspase-Glo 3/7 assay kit (Promega) was used to detect caspase 3/7 activity. Reagents were reconstituted as described in the protocol from the manufacturer. Cells were seeded in 384- and 1536-well assay plates and cultured at 37° C. with 5% CO2 for 16 hours. ZIKV solution was added to cells, followed by incubation at 37° C. with 5% CO2 for 6 hours. Caspase-Glo 3/7 was added to each well at a 1:1 ratio, unless otherwise specified, and incubated at room temperature for 30 minutes. The luminescence intensity of the assay plates was measured using a ViewLux plate reader (PerkinElmer). Data was normalized by using the cell-containing wells without ZIKV as a negative (0% induction of caspase 3/7 activity) control and wells containing ZIKV infected cells that induced caspase 3/7 activity were used as a positive control (100% induction of caspase 3/7 activity). […]
# [3] = test system: ZIKV-induced caspase 3/7 activity in hNPCs; assay: Caspase 3/7 activity assay, ZIKV-infected hNPCs; format: cell-based; settings: ZIKV-infected hNPCs; for Emax: read-out: Caspase 3 (efficacy, %) NPCs; for IC50: read-out: Caspase 3 (IC50, uM) NPCs
# Description: Caspase-Glo 3/7 assay kit (catalog number G8092; Promega, Madison, Wis.) was used to detect caspase 3/7 activity. Reagents were reconstituted as described in the protocol from the manufacturer. Polystyrene plates (384-well and 1536-well; regular tissue culture treated and PDL coated) were purchased from Greiner Bio-One (Monroe, N.C.). Cells were seeded in 384- and 1536-well assay plates and cultured at 37° C. with 5% CO2 for 16 hours. ZIKV solution was added to cells, followed by incubation at 37° C. with 5% CO2 for 6 hours. Caspase-Glo 3/7 was added to each well, unless otherwise specified, and incubated at room temperature for 30 minutes. The luminescence intensity of the assay plates was measured using a ViewLux plate reader (PerkinElmer). Data were normalized by using the cell-containing wells without ZIKV as a negative control (0% induction of caspase 3/7 activity) and wells containing ZIKV infected cells that induced caspase 3/7 activity were used as a positive control (100% induction of caspase 3/7 activity).
# Human NPCs were seeded onto PDL coated 1536-well assay plates at 250 cells per 3 μl/well and incubated at 37° C. in 5% CO2 for 16 hours. Test compounds dissolved in DMSO were transferred to assay plates at a volume of 23 nl/well by an automated pintool workstation (Wako Automation, San Diego, Calif.). Compounds were incubated with cells for 30 minutes at 37° C. in 5% CO2, immediately followed by the addition of 2 μl/well of ZIKV. Incubation time of compound-treated cells with ZIKV varied based on assay format. Experiments measuring virus-induced caspase 3/7 activity required a 6 hour incubation of ZIKV in the presence compounds at 37° C. in 5% CO2. Following this incubation, 3.5 μl/well of caspase 3/7 reagent mixture was added to assay plates. The plates were incubated for 30 minutes at room temperature, and the resultant luminescence signal was measured using a ViewLux plate reader (Perkin Elmer). Experiments measuring virus-induced cell death required a 72-hour incubation of ZIKV in the presence of compounds at 37° C. in 5% CO2. Following this incubation, 3.5 μl/well of ATP content detection reagent was added to assay plates, incubated for 30 minutes at the room temperature, and the resultant luminescence signal was measured in a ViewLux plate reader.
# Caspase-Glo 3/7 assay kit (Promega) was used to detect caspase 3/7 activity. Reagents were reconstituted as described in the protocol from the manufacturer. Cells were seeded in 384- and 1536-well assay plates and cultured at 37° C. with 5% CO2 for 16 hours. ZIKV solution was added to cells, followed by incubation at 37° C. with 5% CO2 for 6 hours. Caspase-Glo 3/7 was added to each well at a 1:1 ratio, unless otherwise specified, and incubated at room temperature for 30 minutes. The luminescence intensity of the assay plates was measured using a ViewLux plate reader (PerkinElmer). Data was normalized by using the cell-containing wells without ZIKV as a negative (0% induction of caspase 3/7 activity) control and wells containing ZIKV infected cells that induced caspase 3/7 activity were used as a positive control (100% induction of caspase 3/7 activity).
# Human NPCs were seeded onto PDL coated 1536-well assay plates at 250 cells per 3 μl/well and incubated at 37° C. in 5% CO2 for 16 hours. Test compounds dissolved in DMSO were transferred to assay plates at a volume of 23 nl/well by an automated pintool workstation (Wako Automation, San Diego, Calif.). Compounds were incubated with cells for 30 minutes at 37° C. in 5% CO2, immediately followed by the addition of 2 μl/well of ZIKV. Incubation time of compound-treated cells with ZIKV varied based on assay format. Experiments measuring virus induced caspase 3/7 activity required a 6 hour incubation of ZIKV in the presence compounds at 37° C. in 5% CO2. […]
# [4] = test system: ZIKV-induced caspase 3/7 activity in human astrocytes; assay: Caspase 3/7 activity assay, ZIKV-infected human astrocytes; format: cell-based; settings: ZIKV-infected human astrocytes; for IC50: read-out: Caspase 3 (IC50, uM) Astrocyte; for Emax: read-out: Caspase 3 (efficacy, %) Astrocyte
# Description: as §1, §2
# [5] = test system: ZIKV-induced cell death in SNB-19 cells; assay: ATP cell viability assay for ZIKV-induced cell death, SNB-19 cells; format: cell-based, human; settings: ZIKV-infected SNB-19 cells; for IC50: read-out: Cell viability (IC50, uM) SNB-19
# Description: (§3) The reagent was reconstituted and prepared as described by the manufacturer. In order to measure the cell death caused by ZIKV infection, cells were cultured for 16 hours at 37° C. with 5% CO2 in assay plates, followed by the addition of ZIKV solution and incubation at 37° C. with 5% CO2 for 72 hours. ATPlite, the ATP monitoring reagent, was then added to the assay plates and they were incubated for 15 minutes. The resulting luminescence was measured using the ViewLux plate reader (Perkin Elmer). Data were normalized using the wells without cells as a control for 100% cell killing, and cell-containing wells without ZIKV infection were used as full cell viability (0% cell killing). […]
# as §3, with “The ATPlite luminescence assay system assay kit (PerkinElmer) was used to determine cell viability. The reagent” for “The reagent”, “by the manufacture. In order” for “by the manufacturer. In order”, “followed by addition of” for “followed by the addition of”, “plates and incubated for” for “plates and they were incubated for”, “Elmer). Data was normalized using” for “Elmer). Data were normalized using”
Structure (SMILES),"Cell viability (efficacy, %) Astrocyte [1] [%]",IC50 ([2]; Homo sapiens) [µM],Emax ([2]; Homo sapiens) [%],Emax ([3]; Homo sapiens) [%],IC50 ([4]; Astrocyte) [µM],Emax ([4]; Astrocyte) [%],"Cell viability (efficacy, %) SNB-19 [5] [%]",IC50 ([3]; Homo sapiens) [µM],IC50 ([5]; Homo sapiens) [µM],"Caspase 3 (efficacy, %) SNB-19 [2] [%]",IC50 [2] [µM],"Caspase 3 (efficacy, %) NPCs [3] [%]",IC50 [3] [µM],"Caspase 3 (efficacy, %) Astrocyte [4] [%]",IC50 [4] [µM],IC50 [5] [µM],"IC50 ([1]; read-out: Cell viability (IC50, uM) Astrocyte) [µM]"
COc1cccc2c1C(=O)c1c(O)c3c(c(O)c1C2=O)C[C@@](O)(C(=O)CO)C[C@@H]3O[C@H]1C[C@H](N)[C@H](O[C@@H]2CCCCO2)[C@H](C)O1 [Pirarubicin],0.0,20.6,63.9,51.5,13.8,59.8,0.0,,,,,,,,,,
O=C(/C=C/c1ccc(O)cc1)c1ccc(O)cc1O [Isoliquiritigenin],0.0,2.18,96.9,89,3.08,95.1,36.3,1.84,3.08,,,,,,,,
N#C/C(=C\c1ccc(O)c(O)c1)C(=O)Nc1ccccc1 [Tyrphostin AG 494],0.0,,,,,,45.6,,,55.6,21.8,72.8,17.3,72.5,18.4,30.8,
Cc1oncc1C(=O)Nc1ccc(C(F)(F)F)cc1 [Leflunomide],0.0,3.27,106,97.8,4.35,98.1,0.0,1.38,,,,,,,,,
O=c1c(-c2ccc(O)cc2)coc2cc(O[C@@H]3O[C@H](CO)[C@@H](O)[C@H](O)[C@H]3O)cc(O)c12 [Genistin],0.0,23.1,58.1,58.6,25.9,60.2,0.0,17.3,,,,,,,,,
OCc1ccc(-c2ccc(-c3ccc(CO)s3)o2)s1 [RITA],81.7,,,,,,0.0,,,101,0.22,50.9,14.6,41.2,27.5,,5.81
COc1cccc(NC(=O)/C=C/c2ccc(Cl)cc2)c1 [SB-366791],0.0,,,,,,0.0,,,93.3,3.66,89.9,2.91,93.9,4.11,,
CC(/C=C1\SC(=S)N(CC(=O)O)C1=O)=C\c1ccccc1 [Epalrestat],0.0,20.6,79.2,72.1,19.5,93.3,82.1,15.5,5.48,,,,,,,,
COc1ccc(/C=C/C(=O)Nc2ccccc2C(=O)O)cc1OC [Tranilast],0.0,17.3,70.3,107,17.3,71.6,0.0,19.5,,,,,,,,,
COc1cc2nc(N3CCN(C(=O)C4CCCO4)CC3)nc(N)c2cc1OC (stereo not drawn) [Terazosin hydrochloride],,17.3,77.3,84.4,12.3,88.9,,10.9,,,,,,,,,

# Source: patent publication US10940188B2, “Compounds and methods for treatment and prevention of Flavivirus infection” (priority 2016, dated 2021)
